pIC50: −log10 of the molar value. Where two headings read alike, the source gives them in different places.
Assays:
[1] = molecular target: ATR kinase (Homo sapiens, UniProt Q13535); experiment: Assay of ATR kinase activity (time-resolved fluorescence, phosphorylation of p53-derived protein); assay type: biochemical
Method: Biotinylated protein derived from p53 (Eurofins, art. No.: 14-952) was phosphorylated with ATR kinase. The amount of phosphorylated protein was determined by time-resolved fluorescence in this assay. The amount of phosphorylated protein was detected by anti-p53-phospho-(serine 15)-K-specific antibody (Cisbio, art. No.: 61GSTDLA) and d2 labeled anti-GST antibody (Cisbio, art. No. 61P08KAE). Before the assay, the following working solutions were formulated as required: 1×reaction buffer (20 mM HEPES PH8.0, 1% glycerol, 0.01% Brij-35), dilution buffer (20 mM HEPES PH8.0, 1% glycerol, 0.01% Brij-35, 5 mM DTT and 1% BSA), stop solution (20 mM HEPES PH8.0, 1% glycerol, 0.01% Brij-35, 250 mM EDTA), detection buffer (50 mM HEPES pH7.0, 150 mM NaCl, 267 mM KF, 0.1% sodium cholate, 0.01% Tween-20, 0.0125% sodium azide). The reagents used above were purchased from Sigma or Invitrogen, except for those whose manufacturers were mentioned.
Operations were as follows:
4× serially diluted compound solutions were prepared with 1× reaction buffer to give 9 compound solutions with different concentrations, and 2.5 μL of the 4× serially diluted compound solutions were added to a 384-well analysis plate (784075, Greiner). 4×p53 substrate working solution (40 nM) was prepared with 1× reaction buffer, and 2.5 μL of the 4×p53 substrate working solution was added to a 384-well analysis plate. 4×ATR/ATRIP working solution (12.8 ng/μL) was prepared with dilution buffer, and 2.5 μL of the 4×pATR/ATRIP working solution was added to a 384-well analysis plate. 4×ATP working solution (2 mM) was prepared with deionized water, and 2.5 μL of the 4×ATP working solution was added to a 384-well analysis plate. The plates were incubated at room temperature in dark for 30 minutes. 5 μL of stop solution was added to the 384 analysis plates. Finally, 5 μL of assay mixture (0.084 ng/μL Anti-phospho-p53(ser15)-K and 5 ng/μL Anti-GST-d2) was added to the 384 well analysis plates, and incubated at room temperature overnight. The fluorescence signal was detected with ENVISION (Perkinelmer) instrument (excitation wavelength: 320 nm, emission wavelength: 665 nm and 615 nm). The inhibition rate in each well was calculated by the fluorescence intensity value in each well:ER (Emission Ratio)=(Fluorescence intensity at 665 nm/Fluorescence intensity at 615 nm); inhibition rate=(ER of positive−ER of assay compound)/(ER of positive−ER of negative)×100%. IC50 values of compounds were calculated by standard software for parameter fitting (GraphPad Prism 6.0).

[2] = tested on: TOV21G (ovarian cancer); experiment: Cell proliferation inhibition in vitro, CellTiter-Glo, TOV21G; assay type: cell-based; conditions: Homo sapiens, read-out: TOV21G/IC50/μM
Method: (§1) By detecting the effect of compounds on cell activity in vitro in tumor cell lines TOV21G (ovarian cancer) and MV4-11 (leukemia), the inhibitory effect of compounds on cell proliferation was studied in this assay.
(§2) TOV21G cells and MV4-11 cells were purchased from American Type Culture Collection (ATCC).
TOV21G cells were cultured in MCDB105/M199 medium (containing 15% of FBS), and used for assaying when the cell confluence reached 85% or more. About 1000 cells were inoculated in each well of a 96-well culture plate, and cultured for 24 hours. Different concentrations (0-10 μM) of compounds to be assayed were added to treat the cells. Each group was assayed in triplicate. Blank wells (containing medium only) and control wells (inoculated cells without being treated with drug) were set. Cells were cultured for 120 hours. 40 μL of Cell Titer-Glo solutions (Promega, #G7573) were added to each well, and the cells were incubated with shaking for 20 min in the dark. 100 μL of solution was transferred from each well to a 96-well blank plate (Corning, #3917), and the luminescence value was read by Biotek Synergy H1 multifunctional microplate reader.

[3] = tested on: MV4-11 (leukemia); experiment: Cell proliferation inhibition in vitro, CellTiter-Glo, MV4-11; assay type: cell-based; conditions: Homo sapiens, read-out: MV4-11/IC50/μM
Method: as §1, §2
MV-4-11 cells were cultured in IMDM medium (containing 20% of FBS). About 10,000 cells were inoculated in each well of a 96-well culture plate, and treated by adding different concentrations (0-10 μM) of compounds to be assayed. Each group was assayed in triplicate. Blank wells (containing medium only) and control wells (inoculated cells without being treated with drug) were set. Cells were cultured for 120 hours. 40 μL of Cell Titer-Glo solutions were added to each well, and the cells were incubated with shaking for 20 min in the dark. 100 μL of solution was transferred from each well to a 96-well blank plate, and the luminescence value was read by Biotek Synergy HI multifunctional microplate reader. Inhibition rate (%)=100%×(control well−assay well)/(control well−blank well)

[4] = In vitro stability in human liver microsome; assay type: in vitro ADME; conditions: liver microsomes, read-out: Human liver microsome t1/2
From the text: (§3) Based on the in vitro activity results, representative compounds were selected for assay studies on the stability in liver microsome, and the results were as follows.

[5] = In vitro stability in mouse liver microsome; assay type: in vitro ADME; conditions: liver microsomes, read-out: Mouse liver microsome t1/2
From the text: as §3

[6] = In vivo oral administration pharmacokinetics in mice; design: AUC: concentration or dose not given beside the values; conditions: mouse
From the text: Based on the in vitro activity results, representative compounds were selected for in vivo pharmacokinetic studies.
In Vivo Oral Administration—Pharmacokinetic Results in Mice: […]

[7] = molecular target: ATM (Homo sapiens, UniProt Q13315); experiment: Kinase selectivity: inhibitory activity against ATM; assay type: biochemical; conditions: 10 concentrations, 10 μM to 0.51 nM
Method: (§4) The compound of the present disclosure was assayed for inhibition of the same family (ATM, DNA-PK and mTOR):
(§5) According to the assay method reported in the literature, the compound to be assayed was serially diluted 3-fold to 0.51 nM starting from 10 μM (a total of 10 concentrations), and assayed for the inhibitory activities against kinases ATM^1, DNA-PK^2 and mTOR^3, respectively.

[8] = molecular target: DNA-PK (Homo sapiens, UniProt P78527); experiment: Kinase selectivity: inhibitory activity against DNA-PK; assay type: biochemical; conditions: 10 concentrations, 10 μM to 0.51 nM; read-out: IC50/DNAPK
Method: as §4, §5

[9] = molecular target: mTOR (Homo sapiens, UniProt P42345); experiment: Kinase selectivity: inhibitory activity against mTOR; assay type: biochemical; conditions: 10 concentrations, 10 μM to 0.51 nM
Method: as §4, §5

[10] = TOV21G cells, 120 hours, CellTiter-Glo
[11] = MV4-11 cells, 120 hours, CellTiter-Glo

Sequence of ATR kinase (Q13535 whole entry): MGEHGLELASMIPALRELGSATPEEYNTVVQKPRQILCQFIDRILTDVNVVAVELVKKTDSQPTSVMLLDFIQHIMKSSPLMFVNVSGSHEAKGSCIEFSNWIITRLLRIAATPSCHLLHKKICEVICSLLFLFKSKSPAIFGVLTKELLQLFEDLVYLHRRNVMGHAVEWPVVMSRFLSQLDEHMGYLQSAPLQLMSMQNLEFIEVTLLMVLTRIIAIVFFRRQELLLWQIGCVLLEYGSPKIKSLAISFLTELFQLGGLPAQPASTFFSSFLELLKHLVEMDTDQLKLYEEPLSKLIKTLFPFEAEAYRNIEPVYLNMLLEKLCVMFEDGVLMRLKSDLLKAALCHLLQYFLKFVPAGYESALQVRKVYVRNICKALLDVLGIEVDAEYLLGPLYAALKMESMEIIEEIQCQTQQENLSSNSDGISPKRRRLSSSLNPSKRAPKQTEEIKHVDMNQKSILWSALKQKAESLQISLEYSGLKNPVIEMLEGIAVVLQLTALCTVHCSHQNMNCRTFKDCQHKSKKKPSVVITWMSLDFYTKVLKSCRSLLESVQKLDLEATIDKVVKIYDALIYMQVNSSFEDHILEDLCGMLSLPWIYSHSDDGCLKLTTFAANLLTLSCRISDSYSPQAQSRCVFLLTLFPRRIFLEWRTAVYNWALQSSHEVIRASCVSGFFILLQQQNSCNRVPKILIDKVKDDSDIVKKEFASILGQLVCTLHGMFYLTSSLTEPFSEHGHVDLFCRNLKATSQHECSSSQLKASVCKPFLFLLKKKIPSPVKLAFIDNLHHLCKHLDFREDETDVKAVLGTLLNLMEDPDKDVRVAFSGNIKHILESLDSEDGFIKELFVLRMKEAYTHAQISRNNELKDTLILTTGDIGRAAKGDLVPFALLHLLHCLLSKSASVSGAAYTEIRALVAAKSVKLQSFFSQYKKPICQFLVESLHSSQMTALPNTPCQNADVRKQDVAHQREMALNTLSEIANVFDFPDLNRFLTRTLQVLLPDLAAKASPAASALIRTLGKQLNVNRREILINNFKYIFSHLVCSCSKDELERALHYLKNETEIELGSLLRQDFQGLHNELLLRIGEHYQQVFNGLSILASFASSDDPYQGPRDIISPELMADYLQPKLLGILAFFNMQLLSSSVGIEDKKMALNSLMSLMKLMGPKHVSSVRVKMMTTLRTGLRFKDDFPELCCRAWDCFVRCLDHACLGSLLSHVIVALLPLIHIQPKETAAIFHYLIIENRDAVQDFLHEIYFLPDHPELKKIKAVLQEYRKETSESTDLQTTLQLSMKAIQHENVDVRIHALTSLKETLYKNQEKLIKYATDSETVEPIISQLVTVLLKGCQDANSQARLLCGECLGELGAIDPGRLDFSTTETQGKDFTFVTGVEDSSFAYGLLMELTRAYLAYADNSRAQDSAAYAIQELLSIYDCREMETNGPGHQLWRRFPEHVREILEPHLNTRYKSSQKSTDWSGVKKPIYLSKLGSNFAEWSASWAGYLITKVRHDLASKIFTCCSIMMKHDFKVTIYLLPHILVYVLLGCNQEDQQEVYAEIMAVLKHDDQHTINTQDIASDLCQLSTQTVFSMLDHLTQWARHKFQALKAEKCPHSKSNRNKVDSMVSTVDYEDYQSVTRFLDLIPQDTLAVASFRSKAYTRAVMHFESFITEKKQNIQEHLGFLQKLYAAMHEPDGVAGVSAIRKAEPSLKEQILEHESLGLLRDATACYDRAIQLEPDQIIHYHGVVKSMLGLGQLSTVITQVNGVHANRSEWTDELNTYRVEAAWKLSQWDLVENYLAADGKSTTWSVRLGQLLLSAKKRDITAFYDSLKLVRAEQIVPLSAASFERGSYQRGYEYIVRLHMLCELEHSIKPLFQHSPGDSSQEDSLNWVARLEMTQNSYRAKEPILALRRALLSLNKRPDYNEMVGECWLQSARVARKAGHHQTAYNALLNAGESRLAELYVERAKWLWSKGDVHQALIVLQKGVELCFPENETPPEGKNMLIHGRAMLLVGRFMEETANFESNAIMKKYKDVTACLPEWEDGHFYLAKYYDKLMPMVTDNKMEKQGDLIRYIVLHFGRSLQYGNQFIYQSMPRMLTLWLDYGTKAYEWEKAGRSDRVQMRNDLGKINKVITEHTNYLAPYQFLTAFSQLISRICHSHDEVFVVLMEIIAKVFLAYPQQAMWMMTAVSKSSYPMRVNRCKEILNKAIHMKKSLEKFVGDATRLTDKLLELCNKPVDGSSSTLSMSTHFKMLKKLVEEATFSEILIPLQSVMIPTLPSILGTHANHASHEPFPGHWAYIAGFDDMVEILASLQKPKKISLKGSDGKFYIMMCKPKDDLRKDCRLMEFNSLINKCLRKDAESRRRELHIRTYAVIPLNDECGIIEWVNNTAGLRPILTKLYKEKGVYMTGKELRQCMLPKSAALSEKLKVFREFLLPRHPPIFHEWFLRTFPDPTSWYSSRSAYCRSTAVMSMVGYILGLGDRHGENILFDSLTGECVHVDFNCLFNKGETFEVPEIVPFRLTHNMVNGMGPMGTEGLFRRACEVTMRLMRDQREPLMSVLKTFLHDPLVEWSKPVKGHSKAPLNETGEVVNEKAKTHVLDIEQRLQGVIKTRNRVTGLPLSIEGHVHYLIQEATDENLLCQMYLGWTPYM
Sequence of ATR kinase (Q8WXE1 whole entry partner): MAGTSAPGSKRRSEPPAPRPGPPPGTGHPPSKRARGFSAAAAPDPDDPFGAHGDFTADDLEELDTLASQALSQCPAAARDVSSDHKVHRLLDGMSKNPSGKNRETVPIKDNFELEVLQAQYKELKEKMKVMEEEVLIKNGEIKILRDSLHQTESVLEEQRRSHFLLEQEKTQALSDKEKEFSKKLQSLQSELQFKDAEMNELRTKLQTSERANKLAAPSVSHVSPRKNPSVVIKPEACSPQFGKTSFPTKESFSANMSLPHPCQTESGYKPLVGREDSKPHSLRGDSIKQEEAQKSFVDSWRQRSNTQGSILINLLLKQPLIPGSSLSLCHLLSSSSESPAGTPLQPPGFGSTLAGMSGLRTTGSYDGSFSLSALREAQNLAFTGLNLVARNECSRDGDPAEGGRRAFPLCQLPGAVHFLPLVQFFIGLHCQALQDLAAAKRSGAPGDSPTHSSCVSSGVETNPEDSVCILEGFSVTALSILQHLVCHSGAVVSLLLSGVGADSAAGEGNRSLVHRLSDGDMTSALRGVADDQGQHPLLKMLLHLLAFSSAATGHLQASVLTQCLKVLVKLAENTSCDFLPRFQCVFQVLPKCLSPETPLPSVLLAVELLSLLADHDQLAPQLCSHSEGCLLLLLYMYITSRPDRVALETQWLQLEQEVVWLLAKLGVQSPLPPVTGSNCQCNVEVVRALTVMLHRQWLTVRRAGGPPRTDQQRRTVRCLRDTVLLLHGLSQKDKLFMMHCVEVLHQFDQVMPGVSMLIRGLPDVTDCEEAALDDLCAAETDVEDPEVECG

IC50 [1] [nM] | IC50 [2, 10] [µM] | IC50 [3, 11] [µM] | Structure (SMILES) | further results
10 | 0.291 | 0.214 | Cc1nn(-c2cncc(F)c2)c(C)c1-c1cc(N2CCOC[C@H]2C)nc(-c2cc(F)cc3[nH]ccc23)n1 [Compound A11] | half-life [4]: 44 min; half-life [5]: 134 min; AUC [6]: 15200 ng·h/mL; Cmax [6]: 1470 ng/mL; Tmax [6]: 3.3 h; half-life [6]: 180 min
5 | 0.196 | 0.19 | Cc1nn(-c2cncc(F)c2)c(C)c1-c1cc(N2CCOC[C@H]2C)nc(-c2cccc3[nH]ccc23)n1 [Compound A17] | half-life [4]: 65 min; half-life [5]: 61 min; AUC [6]: 8210 ng·h/mL; Cmax [6]: 815 ng/mL; Tmax [6]: 1.75 h; half-life [6]: 138 min
2 | 0.237 | 0.312 | Cc1nn(-c2cncc(F)c2)c(C)c1-c1cc(N2CCOC[C@H]2C)nc(-c2ccnc3[nH]ccc23)n1 [Compound A19] | AUC [6]: 1730 ng·h/mL; Cmax [6]: 331 ng/mL; Tmax [6]: 1 h; half-life [6]: 144 min
5 | 0.457 | 0.169 | Cc1nn(-c2cncc(F)c2)c(C)c1-c1cc(N2CCOC[C@H]2C)nc(-c2cc(CO)cc3[nH]ccc23)n1 [Compound A22] | AUC [6]: 1200 ng·h/mL; Cmax [6]: 865 ng/mL; Tmax [6]: 0.33 h; half-life [6]: 84 min; pIC50 [7]: 5.59; pIC50 [8]: 6.55; pIC50 [9]: 5.93
7 | 0.53 | 0.46 | Cc1nn(-c2cnccn2)c(C)c1-c1cc(N2CCOC[C@H]2C)nc(-c2cc(F)cc3[nH]ccc23)n1 [Compound A25] | –
11 | 0.194 | 0.231 | CNc1nc2ccccc2n1-c1nc(-c2c(C)nn(-c3cncc(F)c3)c2C)cc(N2CCOC[C@H]2C)n1 [Compound B1] | AUC [6]: 8750 ng·h/mL; Cmax [6]: 1450 ng/mL; Tmax [6]: 2.8 h; half-life [6]: 258 min
22 | 0.278 | 0.133 | CNc1nc2ccccc2n1-c1nc(-c2c(C)nn(-c3ccc(C#N)nc3)c2C)cc(N2CCOC[C@H]2C)n1 [Compound B2] | –
49 | 0.411 | 0.303 | CNc1nc2ccccc2n1-c1nc(-c2c(C)nn(-c3cncc(Cl)c3)c2C)cc(N2CCOC[C@H]2C)n1 [Compound B3] | –
17 | 0.306 | 0.25 | CNc1nc2ccccc2n1-c1nc(-c2c(C)nn(-c3cncc(C#N)c3)c2C)cc(N2CCOC[C@H]2C)n1 [Compound B4] | –
16 | 0.383 | 0.208 | CNc1nc2ccccc2n1-c1nc(-c2c(C)nn(-c3cnc(N)c(F)c3)c2C)cc(N2CCOC[C@H]2C)n1 [Compound B5] | –
13 | 0.483 | 0.439 | CNc1nc2ccccc2n1-c1nc(-c2c(C)nn(-c3cccnc3)c2C)cc(N2CCOC[C@H]2C)n1 [Compound B6] | –
62 | 0.544 | 0.549 | CNc1nc2ccccc2n1-c1nc(-c2c(C)nn(-c3ccc(OC)nc3)c2C)cc(N2CCOC[C@H]2C)n1 [Compound B7] | –
69 | 0.212 | 0.519 | CC#Cc1cncc(-n2nc(C)c(-c3cc(N4CCOC[C@H]4C)nc(-n4c(NC)nc5ccccc54)n3)c2C)c1 [Compound B8] | –
3 | 0.226 | 0.157 | CNc1nc2ccccc2n1-c1nc(-c2c(C)nn(-c3ccc(=O)[nH]c3)c2C)cc(N2CCOC[C@H]2C)n1 [Compound B9] | –
5 | 0.219 | 0.287 | CNc1nc2ccccc2n1-c1nc(-c2c(C)nn(-c3cncc(C(N)=O)c3)c2C)cc(N2CCOC[C@H]2C)n1 [Compound B10] | –
15 | 0.276 | 0.24 | Cc1nn(-c2cncc(F)c2)c(C)c1-c1cc(N2CCOC[C@H]2C)nc(-n2c(NCCO)nc3ccccc32)n1 [Compound B11] | –
3 | 0.257 | 0.253 | Cc1nn(-c2cncc(F)c2)c(C)c1-c1cc(N2CCOC[C@H]2C)nc(-n2c(N)nc3ccccc32)n1 [Compound B12] | –
13 | 1.07 | 0.896 | Cc1nn(-c2cncc(F)c2)c(C)c1-c1cc(C23CCOCC2C3)nc(-c2cc(F)cc3[nH]ccc23)n1 (stereo not drawn) [Compound C2] | –
16 | 0.667 | 0.632 | Cc1nn(-c2cncc(F)c2)c(C)c1-c1cc(C23CCOCC2C3)nc(-c2cccc3[nH]ccc23)n1 (stereo not drawn) [Compound C3] | –

Structure (SMILES) | IC50 [1] [nM] | IC50 [2, 10] [µM] | IC50 [3, 11] [µM] | further results
Cc1nn(-c2cncc(F)c2)c(C)c1-c1nc(-c2cccc3[nH]ccc23)nc(N2CCOC[C@H]2C)n1 [Compound C1] | 18 | – | – | IC50 ([2]; TOV21G, 120 h): 0.349 µM; IC50 ([3]; MV4-11, 120 h): 0.903 µM

Reference: patent publication US12692257B2, “2,4,6-tri-substituted pyrimidine compounds as ATR kinase inhibitors” (BEIJING TIDE PHARMACEUTICAL CO., LTD., priority 2020, dated 2026)
